Results on 20 compounds are retold here after ChEMBL document CHEMBL5346931, “Design, synthesis, and repurposing of O6-aminoalkyl-sulfuretin analogs towards discovery of potential lead compounds as antileishmanial agents” (Eur J Med Chem, 2023).

SMILES strings stand for the structures.

For data set [1], the system named is Leishmania donovani. The data set is described as follows: Antileishmanial activity against Leishmania donovani promastigotes assessed as parasitic growth inhibition at 50 uM incubated for 3 days by resazurin dye based assay relative to control. The data set is classed as functional. The conditions noted are these: 72 h, time 3 day.
The test system of data set [2] is Leishmania donovani. The data set is described as follows: Antileishmanial activity against Leishmania donovani promastigotes assessed as parasitic growth inhibition at 25 uM incubated for 3 days by resazurin dye based assay relative to control. Particulars: 72 h, time 3 day. The data set is classed as functional.
The test system of data set [3] is Leishmania donovani. The data set is described as follows: Antileishmanial activity against Leishmania donovani promastigotes assessed as parasitic growth inhibition incubated for 3 days by resazurin dye based assay. Particulars: 72 h. The data set is classed as functional, organism-based.
Data set [4] relates to Leishmania donovani. The data set is described as follows: Antileishmanial activity against Leishmania donovani amastigotes infected in human THP-1 cells assessed as inhibition of intracellular parasite number incubated for 72 hrs by DAPI staining based assay. The data set is classed as functional, organism-based. The conditions noted are these: THP-1, 72 h.
Data set [5] has as its system Leishmania donovani. The data set is described as follows: Antileishmanial activity against Leishmania donovani amastigotes infected in human THP-1 cells assessed as inhibition of parasite infection incubated for 72 hrs by DAPI staining based assay. Particulars: THP-1, 72 h. The data set is classed as functional, organism-based.
A short description of data set [6]: Cytotoxicity against human THP-1 cells. It counts as toxicity, cell-based.

Consider `COc1cccc(/C=C2\Oc3cc(OCCCN4CCCC4)ccc3C2=O)c1OC`, for which, in the data set on Leishmania donovani [1], the inhibition at 50 µM is 116%. In the data set on Leishmania donovani [2], the inhibition at 25 µM is 109%. Besides, the figures for the IC50 in the data set with Leishmania donovani [3], in the data set with Leishmania donovani [4] and with Leishmania donovani [5] were 5.4 µM, over 100 µM and 26.4 µM, respectively. The half-maximal cytotoxic concentration (CC50) in data set [6] came to 33.5 µM.

With `COc1ccc(/C=C2\Oc3cc(OCCCN4CCCC4)ccc3C2=O)cc1OC`, in the data set with Leishmania donovani [1], the inhibition at 50 µM came out at 124%. Further, the inhibition at 25 µM with Leishmania donovani [2] came to 120%. Moreover, the IC50 in the data set with Leishmania donovani [3] was 3.1 µM; in the data set with Leishmania donovani [4], 16.9 µM; in the data set with Leishmania donovani [5], 26.2 µM. The compound further gave a 50% cytotoxic concentration (CC50) in data set [6] of 26.9 µM.

As for `CCCCCCCCCCCCCCCCCCOCC(COP(=O)([O-])OCC[N+](C)(C)C)OC` (stereo unspecified) [EDELFOSINE], the inhibition at 50 µM in the data set with Leishmania donovani [1] is 108%. In addition, the inhibition at 25 µM in the data set on Leishmania donovani [2] came to 108%. Moreover, the values for the IC50 with Leishmania donovani [3], in the data set on Leishmania donovani [4] and in the data set with Leishmania donovani [5] were 3.9 µM, 2 µM and 7.7 µM, respectively. Further, the midpoint of cytotoxicity in data set [6], the CC50, lay at 12.9 µM.

On to `COc1cccc(/C=C2\Oc3cc(OCCN4CCOCC4)ccc3C2=O)c1`, for which the inhibition at 50 µM in the data set on Leishmania donovani [1] is 105%. In addition, in the data set on Leishmania donovani [2], the inhibition at 25 µM came out at 80%. Moreover, the IC50 in the data set with Leishmania donovani [3] was 27 µM.

On to `COc1ccc(/C=C2\Oc3cc(OCCCCCN4CCCCC4)ccc3C2=O)cc1OC`, for which the inhibition at 50 µM with Leishmania donovani [1] stood at 124%. For the same compound, the inhibition at 25 µM in the data set with Leishmania donovani [2] came out at 115%. Further, the half-inhibitory concentration (IC50) is 2.9 µM with Leishmania donovani [3], 17.1 µM in the data set on Leishmania donovani [4] and 24.1 µM in the data set with Leishmania donovani [5]. Also, it took 26.1 µM to reach half-maximal cytotoxicity in data set [6] (CC50).

With `COc1cccc(/C=C2\Oc3cc(OCCN4CCCC4)ccc3C2=O)c1`, the inhibition at 50 µM in the data set with Leishmania donovani [1] stood at 117%. Moreover, the inhibition at 25 µM in the data set on Leishmania donovani [2] came out at 112%. Further, the IC50 came out at 4.8 µM with Leishmania donovani [3], 22.9 µM in the data set on Leishmania donovani [4] and 26.7 µM with Leishmania donovani [5]. Besides, the CC50 in data set [6] stood at 28.9 µM.

Turning to `CCN(CC)CCOc1ccc2c(c1)O/C(=C\c1cccc(OC)c1)C2=O`, the inhibition at 50 µM in the data set with Leishmania donovani [1] turned out to be 121%. Further, the inhibition at 25 µM in the data set on Leishmania donovani [2] is 115%. In addition, the IC50 in the data set with Leishmania donovani [3] is 8.6 µM; with Leishmania donovani [4], over 100 µM; in the data set on Leishmania donovani [5], 27.4 µM. Moreover, in data set [6], the CC50 was 39 µM.

As to `COc1ccc2c(c1)O/C(=C\c1ccc(O)c(O)c1)C2=O`, in the data set on Leishmania donovani [1], the inhibition at 50 µM worked out at 108%. For the same compound, the inhibition at 25 µM in the data set with Leishmania donovani [2] was 105%. Moreover, the IC50 with Leishmania donovani [3] amounted to 26.4 µM.

On to `COc1ccc(/C=C2\Oc3cc(OCCCN4CCCCC4)ccc3C2=O)cc1OC`, for which the inhibition at 50 µM in the data set with Leishmania donovani [1] was 125%. The inhibition at 25 µM in the data set on Leishmania donovani [2] amounted to 119%. The IC50 was 2.6 µM in the data set on Leishmania donovani [3], 22.3 µM in the data set on Leishmania donovani [4] and 29.5 µM in the data set with Leishmania donovani [5]. This compound registered a CC50 in data set [6] of 28.4 µM.

`COc1cc(/C=C2\Oc3cc(OCCN4CCCC4)ccc3C2=O)cc(OC)c1OC`: the inhibition at 50 µM in the data set on Leishmania donovani [1] was 133%. In addition, the inhibition at 25 µM with Leishmania donovani [2] came out at 126%. Further, the values for the IC50 with Leishmania donovani [3], in the data set with Leishmania donovani [4] and with Leishmania donovani [5] were 3.1 µM, 15.7 µM and 27.3 µM, respectively. Further, the half-maximal cytotoxic concentration (CC50) in data set [6] worked out at 26.2 µM.

As for `COc1ccc(OC)c(/C=C2\Oc3cc(OCCN4CCCC4)ccc3C2=O)c1`, the inhibition at 50 µM in the data set on Leishmania donovani [1] was found to be 116%. In the data set with Leishmania donovani [2], the inhibition at 25 µM came out at 115%. Moreover, the IC50 is 4.1 µM with Leishmania donovani [3], 4.6 µM in the data set with Leishmania donovani [4] and 11.1 µM with Leishmania donovani [5]. In data set [6], this compound gave a CC50 of 10.5 µM.

For the compound `COc1ccc(/C=C2\Oc3cc(OCCN4CCCCC4)ccc3C2=O)cc1`, in the data set on Leishmania donovani [1], the inhibition at 50 µM amounted to 99%. In addition, the inhibition at 25 µM in the data set with Leishmania donovani [2] stood at 104%. In addition, the IC50 with Leishmania donovani [3] is 4.3 µM; in the data set with Leishmania donovani [4], 31.5 µM; with Leishmania donovani [5] it was 34.8 µM. For the same compound, the half-maximal cytotoxic concentration (CC50) in data set [6] came to 40.7 µM.

As for `CCN(CC)CCCOc1ccc2c(c1)O/C(=C\c1cccc(OC)c1)C2=O`, the inhibition at 50 µM in the data set on Leishmania donovani [1] was 118%. Further, the inhibition at 25 µM in the data set with Leishmania donovani [2] was determined as 114%. The results for the half-maximal inhibitory concentration (IC50) in the data set with Leishmania donovani [3], in the data set on Leishmania donovani [4] and with Leishmania donovani [5] were 4.6 µM, 14.5 µM and 17.1 µM, respectively. Besides, the midpoint of cytotoxicity in data set [6], the CC50, lay at 19.3 µM.

Turning to `COc1ccc(/C=C2\Oc3cc(OCCN4CCCC4)ccc3C2=O)cc1`, the inhibition at 50 µM in the data set with Leishmania donovani [1] was 115%. In addition, the inhibition at 25 µM with Leishmania donovani [2] is 108%. In addition, the half-inhibitory concentration (IC50) turned out to be 4.8 µM with Leishmania donovani [3], 15.8 µM in the data set on Leishmania donovani [4] and 22.6 µM in the data set with Leishmania donovani [5]. In data set [6], this compound gave a CC50 of 21.5 µM.

As for `COc1ccc(OC)c(/C=C2\Oc3cc(OCCCN4CCCC4)ccc3C2=O)c1`, the inhibition at 50 µM in the data set with Leishmania donovani [1] was 103%. For the same compound, in the data set with Leishmania donovani [2], the inhibition at 25 µM worked out at 103%. For the same compound, the IC50 in the data set with Leishmania donovani [3] stood at 3.7 µM; with Leishmania donovani [4] it was 4.4 µM; in the data set on Leishmania donovani [5] it was 6.3 µM. Also, the CC50 in data set [6] turned out to be 6.6 µM.

`COc1ccc(/C=C2\Oc3cc(OCCN4CCCCC4)ccc3C2=O)cc1OC`: the inhibition at 50 µM in the data set on Leishmania donovani [1] worked out at 127%. Moreover, the inhibition at 25 µM in the data set on Leishmania donovani [2] came out at 122%. In addition, the half-inhibitory concentration (IC50) with Leishmania donovani [3] was 2.5 µM; with Leishmania donovani [4], 25.5 µM; in the data set with Leishmania donovani [5], 29.7 µM. The compound also came in with a CC50 in data set [6] of 27.4 µM.

Regarding `COc1ccccc1/C=C1\Oc2cc(OCCN3CCCC3)ccc2C1=O`, the inhibition at 50 µM in the data set on Leishmania donovani [1] was found to be 71%. In the data set on Leishmania donovani [2], the inhibition at 25 µM came to 69%. Moreover, the 50% inhibitory concentration (IC50) in the data set with Leishmania donovani [3] is over 100 µM.

Regarding `CCN(CC)CCOc1ccc2c(c1)O/C(=C\c1ccccc1OC)C2=O`, in the data set on Leishmania donovani [1], the inhibition at 50 µM was 115%. For the same compound, the inhibition at 25 µM in the data set with Leishmania donovani [2] was 110%. The half-inhibitory concentration (IC50) came out at 5.3 µM in the data set with Leishmania donovani [3], 9.9 µM in the data set on Leishmania donovani [4] and 13.3 µM in the data set on Leishmania donovani [5]. The compound further displayed a CC50 in data set [6] of 17.2 µM.

On to `COc1cc(/C=C2\Oc3cc(OCCCN4CCCC4)ccc3C2=O)cc(OC)c1`, for which the inhibition at 50 µM in the data set with Leishmania donovani [1] is 102%. The inhibition at 25 µM with Leishmania donovani [2] was determined as 104%. Also, the IC50 in the data set on Leishmania donovani [3] was 2.8 µM; in the data set on Leishmania donovani [4], 14.3 µM; in the data set with Leishmania donovani [5], 14 µM. Besides, in data set [6], the midpoint of cytotoxicity, the CC50, lay at 15.3 µM.

On to `COc1ccccc1/C=C1\Oc2cc(OCCCN3CCCC3)ccc2C1=O`, for which the inhibition at 50 µM with Leishmania donovani [1] amounted to 110%. Moreover, the inhibition at 25 µM in the data set on Leishmania donovani [2] came to 107%. Also, the IC50 with Leishmania donovani [3] turned out to be 4.1 µM; in the data set on Leishmania donovani [4], 8.2 µM; with Leishmania donovani [5], 21.2 µM. This compound yielded a cytotoxic concentration (CC50) in data set [6] of 14.3 µM.
